Experimental data: EP1038532A1, “IMMUNOMODULATOR AND PHARMACEUTICAL COMPOSITIONS WITH ANTITUMOR PROPERTIES, AND A FOOD ADDITIVE” (Kaljuzhin, Oleg Vitallievich, priority 1997, dated 1998)

How the values were obtained:
[1] = cholesterol/phosphatidylcholine model lipid membrane
[2] = Distribution of 14C-labelled preparations in the water/chloroform model membrane; type: physicochemical
Excerpt: Marked differences in distribution of 14C-labelled preparations in the phases of this model "membrane" have been found. 64% of C7H15MDP was included in the water phase, and 36% of the preparation in the organic phase. At the same time, the water phase included only 28% of its lipophilic homologue, and the organic phase 72%.

lymphoma EL-4 = assay: Antitumor activity in the mouse lymphoma EL-4 model; type: in vivo, C57BL/6 mice; settings: for Inhibition of tumor growth: day 21
Description: (§1) Experimental procedures. Briefly, suspension of lymphoma EL-4 or melanoma B16 cells (10^6 cells) was injected subcutaneously into the footpad of C57BL/6 mice. Then mice underwent course of C7H15MDP treatment. Solution of the preparation in phosphate buffer saline (PBS) was administered i.v. or p.o. Single dosage for p.o. administration was of 1 mg/kg in weight, and of 0.5 mg/kg in weight when administered i.v. The preparation was administered twice a week during 3 weeks, beginning immediately after implantation of tumor cells. Besides, some tumor-bearing mice were treated with the preparation encapsulated in liposomes consisting of phosphatidylcholine:phosphatudylserine mixture (7:3).
(§2) Liposomal C7H15MDP in dose of 0.25 mg/kg was administered i.v. by the same schedule that was used with unencapsulated preparation.
(§3) Control mice were treated with PBS without active compound.
(§4) Antitumor effect was estimated using the following criteria: (1) prolongation of life-span, (2) inhibition of tumor growth.

TNF = TNF production by peritoneal macrophages, read out by lysis of L929 cells; type: cell-based, C57BL/6 mouse; settings: control 7±6
Excerpt: (§5) Each value in the table is the mean ± S.D. of three independent experiments.

[3] = system: lymphocytes in a mixed lymphocyte culture (MLC); assay: Proliferation of lymphocytes in a mixed lymphocyte culture (MLC); type: cell-based; settings: mean ± S.D. of six experiments, control 11.9±0.9
Excerpt: Each value in the table is the mean index of proliferation stimulation of lymphocytes in MLC ± S.D. of six independent experiments.

mouse splenocytes = assay: LPS-induced proliferation of mouse splenocytes; type: cell-based; settings: LPS stimulation 1 µg/ml, mean ± S.D. of three experiments, control 3.4±0.2
Description: Each value in the table is the index of proliferation of lymphocytes in response to stimulation of 1 µg/ml under the influence of MDP derivatives (arithmetical mean ± S.D. of three independent experiments).

IL-1 = IL-1 production by peritoneal macrophages, read out by thymocyte proliferation; type: cell-based, C57BL/6 mouse; settings: control 1.3±0.4
Excerpt: as §5

[4] = system: lymphoma EL-4 or melanoma B16; assay: Further antitumor trials in tumor-bearing mice (tumor type not specified); type: in vivo, C57BL/6 mice; settings: treatment begun 1 week before tumor implantation
Description: as §1, with “Then mice underwent course of C7H15MDP treatment.” left out, “The preparation was administered twice a week during 3 weeks, beginning immediately after implantation of tumor cells.” left out
as §2
However, all methods of administration (p.o., i.v., liposomal i.v.) seem to be rational. Exact administration method is to be defined individually taking into account localization and type of tumor and other factors.

melanoma B16 = assay: Antitumor activity in the mouse melanoma B16 model; type: in vivo, C57BL/6 mice; settings: for Inhibition of tumor growth: day 21
Description: as §1, §2, §3, §4

[5] = system: human erythroleukemia K562 cells
[6] = i.v., 0.5 mg/kg twice a week during 3 weeks
[7] = p.o., 1 mg/kg twice a week during 3 weeks

Row | Compound | time at which the preparation appeared in the second water phase [1] [h] | share of preparation included in the organic phase [2] [%] | share of preparation included in the water phase [2] [%] | Cytosis of L929 cells by samples of TNF (TNF; 5 µM) [%] | Cytosis of L929 cells by samples of TNF (TNF; 10 µM) [%] | Cytosis of L929 cells by samples of TNF (TNF; 20 µM) [%] | mean index of proliferation stimulation of lymphocytes in MLC ([3]; 5 µM) | mean index of proliferation stimulation of lymphocytes in MLC ([3]; 10 µM) | mean index of proliferation stimulation of lymphocytes in MLC ([3]; 20 µM) | index of proliferation of lymphocytes (mouse splenocytes; 5 µM) | index of proliferation of lymphocytes (mouse splenocytes; 10 µM) | index of proliferation of lymphocytes (mouse splenocytes; 20 µM) | Proliferation of tymocytes cultured with samples of IL-1 (index of proliferation) (IL-1; 5 µM) | Proliferation of tymocytes cultured with samples of IL-1 (index of proliferation) (IL-1; 10 µM) | Proliferation of tymocytes cultured with samples of IL-1 (index of proliferation) (IL-1; 20 µM) | also measured
1 | CCCCCCCO[C@@H]1O[C@H](CO)[C@@H](O)[C@H](O[C@H](C)C(=O)N[C@@H](C)C(=O)N[C@H](CCC(=O)O)C(N)=O)[C@H]1NC(C)=O [C7H15MDP, β-heptylglycoside-MDP] | 24 | 36 | 64 | 41±2 | 57±8 | 62±5 | 14.5±0.9 | 16.4±0.6 | 15.9±1.4 | 4.4±0.3 | 4.6±0.3 | 4.4±0.3 | 3.8±0.2 | 3.9±0.2 | 4.8±0.2 | time to reach a state of equilibrium between concentrations in water phases from both sides of the model membrane ([1]; first to reach equilibrium): 72 h; Prolongation of life-span (lymphoma EL-4; [6]): 62%; Mean life-span (lymphoma EL-4; i.v., 0.5 mg/kg twice a week during 3 weeks, control (PBS i.v.) 39±4): 63 ± 5 days; Tumor node volume at the day 21 after tumor inoculation (lymphoma EL-4; i.v., 0.5 mg/kg, control (PBS i.v.) 789±64): 463±52 mm^3; Inhibition of tumor growth (lymphoma EL-4; i.v., 0.5 mg/kg): 41%; Prolongation of life-span (lymphoma EL-4; [7]): 19%; Mean life-span (lymphoma EL-4; p.o., 1 mg/kg twice a week during 3 weeks, control (PBS p.o.) 42±6): 50 ± 7 days; Tumor node volume at the day 21 after tumor inoculation (lymphoma EL-4; p.o., 1 mg/kg, control (PBS p.o.) 842±78): 650±73 mm^3; Inhibition of tumor growth (lymphoma EL-4; p.o., 1 mg/kg): 23%; tumor regression [4]: complete regression of tumor was observed in several cases; Prolongation of life-span (melanoma B16; [6]): 101%; Mean life-span (melanoma B16; i.v., 0.5 mg/kg twice a week during 3 weeks, control (PBS i.v.) 36±3): 74 ± 9 days; Tumor node volume at the day 21 after tumor inoculation (melanoma B16; i.v., 0.5 mg/kg, control (PBS i.v.) 736±51): 494±49 mm^3; Inhibition of tumor growth (melanoma B16; i.v., 0.5 mg/kg): 33%; Prolongation of life-span (melanoma B16; [7]): 70%; Mean life-span (melanoma B16; p.o., 1 mg/kg twice a week during 3 weeks, control (PBS p.o.) 30±4): 51 ± 5 days; Tumor node volume at the day 21 after tumor inoculation (melanoma B16; p.o., 1 mg/kg, control (PBS p.o.) 765±69): 571±65 mm^3; Inhibition of tumor growth (melanoma B16; p.o., 1 mg/kg): 25%
2 | CCCCCCCCCCCCCCCCO[C@@H]1O[C@H](CO)[C@@H](O)[C@H](O[C@H](C)C(=O)N[C@@H](C)C(=O)N[C@H](CCC(=O)O)C(N)=O)[C@H]1NC(C)=O [C16H33MDP, β-hexadecylglycoside-MDP] | 1 | 72 | 28 | 36±15 | 40±16 | 47±10 | 9.5±1.2 | 7.7±0.4 | 5.9±0.8 | 3.0±0.1 | 2.6±0.3 | 3.0±1.0 | 3.8±0.1 | 3.9±0.4 | 3.9±0.1 | time at which concentration in the second water phase became significant [1]: 6 h; binding to the cells, more intensive than amphiphilic homologue [5]: 50%; time at which cell-associated radioactivity entered the plateau stage [5]: 2 h
